89 compounds from a melting point compilation (Tetko et al.; mined from patent text by program, amines drawn as free bases though some values may be those of a salt) can be followed below.

A word on the melting point: it is the temperature, or range, at which the solid turns liquid. `COc1ccc2cc([C@H](C)C(=O)OCCNC(=O)c3cccc(CO[N+](=O)[O-])c3)ccc2c1` displayed a melting point of 92 to 94 °C.
`NC(CSCC(O)CN1CCOCC1)C(=O)O` (centres undefined) displayed a melting point of 200 °C.
Consider `Cc1ccccc1C(=O)COc1c(C(=O)c2ccc(Cl)c(C)c2Cl)c(C)nn1C`, for which the melting point was found to be 154 °C.
With `COc1cc2c(c(C)c1C)C(O)CC2c1c[nH]cn1` (centres undefined) the figure was 184 to 189 °C; with `COc1ccc(SCCNC(=O)c2ccc(OCC=C(C)CCC=C(C)C)cc2)nc1`, 82.6 to 83.4 °C.
Compound `CC(C)(C)c1cc(I)c(O)c(C=O)c1` displayed a melting point of 77 °C.
`NC(=O)Cn1cc2c(c1)-c1ccc(Cl)cc1C(c1ccccc1)=NC2` registered a melting point of 236 to 237 °C.
On to `CC1CC(CN2CCNC2=N[N+](=O)[O-])CO1` (centres undefined), for which the melting point lay within 109 to 110 °C.
In the case of `CC(=O)SCC(Cc1ccccc1)C(=O)Nc1cc(C(=O)O)cc(C(C)C)c1` (centres undefined), the melting point lay in the range of 205 to 206 °C.
Turning to `O=C(O)c1ccc2c(c1)CCc1ccc(C(=O)O)cc1S2(=O)=O`, the melting point was in the range of 350 to 352 °C.
Consider `CNn1cccc1C(=O)c1ccccc1Cl`, for which the melting point lay in the range of 56 to 58 °C.
In turn, `COc1ccc(OC)c(COc2ccc(NC=O)c(C(N)=O)c2)c1` showed a melting point of 135 to 138 °C.
Take `OCCCc1cnoc1-c1ccc(C(F)(F)F)cc1`: the melting point lay within 85 to 86 °C.
With `CCS(=O)(=O)CCC(=O)NNC(=O)N1Cc2cc(Cl)ccc2Oc2ccc(Cl)cc21`, the melting point lay within 189 to 190 °C.
The compound `CC(CCCC(C)C1CCC2C3CC=C4CC(O)CCC4(C)C3CCC12C)CO[Si](C)(C)C(C)(C)C` (centres undefined) showed a melting point of 93.5 °C.
Turning to `CC(OC(N)=O)c1cc2c3ccccc3n(C)c(=O)n2n1` (centres undefined), the melting point fell in the range of 216 to 221 °C.
Take `CCOC(=O)c1cc2cc(OCCCCCBr)ccc2o1`: the melting point is 31 °C.
Take `CCOC(=O)C1=C(C)NC(C)=C(C(=O)OCC)C1c1cc(Cl)cc(Cl)c1`: the melting point fell in the range of 102 to 104 °C.
`Oc1cccc(-c2cnc3cnc(-c4cccc(O)c4)nc3c2)c1` gave a melting point of 264 to 265 °C.
`CCCN(CCC)C1Cc2cccc3c2N(CCC3)C1` (centres undefined) displayed a melting point of 112 to 116 °C.
On to `CCOC(=O)NS(=O)(=O)c1c(Cl)c(C)nn1C`, for which the melting point was in the range of 106 to 109 °C.
Consider `O=C(NCCN1CCOCC1)c1nnc2ccccc2c1O`, for which the melting point lay within 196 to 198 °C.
For the compound `CCOC(=O)c1c(C)cc2c(=O)n(-c3ccccc3C(=O)O)cnc2c1C`, the melting point lay within 207 to 210 °C.
Compound `c1ccc(CN(c2ccccc2)c2ccc(N(Cc3ccccc3)c3ccccc3)cc2)cc1` gave a melting point of 149 to 151 °C.
`COCn1nnc(NC(=O)C(c2ccccc2)c2ccccc2)n1` showed a melting point of 127 to 128 °C.
Consider `CCOc1ccc2c(c1)C(O)Cc1c(Cl)cccc1S2` (centres undefined), for which the melting point lay within 88 to 90 °C.
For the compound `N#Cc1ccc(NC(=O)c2cccc(OCc3ccc(Cl)cn3)c2)cc1`, the melting point is 168 to 169 °C.
The compound `CC1(C)CCC(C)(C)c2cc(C(=O)C(=O)Nc3ccc(C(=O)O)cc3)ccc21` yielded a melting point of 216 to 217 °C.
Compound `CCOC(=O)N1C(C)=CC(C(=O)OCC)(c2cccc(OCC3CO3)c2)C=C1C` (centres undefined) showed a melting point of 116 °C.
On to `COc1cc(C)ccc1S(=O)(=O)OC(Cl)C(=O)c1ccccc1` (centres undefined), for which the melting point is 110 to 112 °C.
`NC(=O)c1ccc(N2CCN(Cc3cn4ccccc4n3)CC2)cc1` showed a melting point of 249 to 250 °C.
The same measure for `CCCc1nn(C)c(C(N)=O)c1NC(=O)c1cc(S(=O)(=O)N2CCN(C)CC2)ccc1OCC`: 204 to 206 °C.
In the case of `COc1cc(CNC=O)ccc1O`, the melting point turned out to be 83.5 °C.
`Nc1ccc(Oc2ccc3cc(Oc4ccc(N)c(O)c4)ccc3c2)cc1O`: the melting point fell in the range of 239 to 241 °C.
The compound `COc1ccc(C(C)(C)CC(O)(C(=O)O)C(F)(F)F)cc1Br` (centres undefined) had a melting point of 94 to 96 °C.
In the case of `CC1(C)C2CCC1(CS(=O)(=O)NCCC1CCc3ccccc31)C(=O)C2` (centres undefined), the melting point fell in the range of 52 to 70 °C.
The compound `Cc1nc(C23CC4CC(CC(C4)C2)C3)oc1COC(=O)C(C)(C)O` registered a melting point of 68 to 70 °C.
Regarding `Cc1cccc2c1C1(COc3cc4c(cc31)OCO4)C(=O)N2Cc1ccc(C(F)(F)F)o1` (centres undefined), the melting point fell in the range of 117 to 119 °C.
The same measure for `COc1cccc2c1CCc1ccn(CCNC(C)=O)c1-2`: 133 °C; for `CC(C)(C)OC(=O)N1CCC(Oc2ccc(C(=O)Cc3ccccn3)cc2)CC1`: 138 to 140 °C.
In turn, `Cc1onc(-c2cccc(C(F)(F)F)c2)c1CCC(=O)O` gave a melting point of 63 to 64 °C.
`O=C1CCS(=O)(=O)C(CC(=O)c2ccccc2)C1` (centres undefined): the melting point was in the range of 158 to 159 °C.
The same measure for `NC(=O)c1c(N)nn(-c2ccccc2)c1N`: 182 to 183 °C; for `O=C(CN1C(=O)c2ccccc2C1=O)Nc1ccccc1C(=O)N1CCCc2ccccc21`: 130 °C; for `Cc1oc(-c2ccccc2)nc1COc1ccc(COc2ccc(Cl)cc2CC(=O)O)cc1`: 160 to 161 °C.
`COCCNC(=O)c1cccc(-c2cccc3cc(C(C)(O)c4cccc(C(F)(F)F)c4)sc23)c1` (centres undefined) returned a melting point of 134 to 138 °C.
The same measure for `O=CC(=C1NCCCS1)[N+](=O)[O-]`: 171 to 172 °C; for `C=CCC(C)(C)C(NC(=O)c1ccc(Cl)cc1)Nc1c(Nc2cccnc2)c(=O)c1=O` (centres undefined): 242 to 243 °C.
On to `COc1ccc(CC(=O)O)c(OCCCc2cn(-c3ccc(C(F)(F)F)cn3)nc2C(C)C)c1`, for which the melting point is 143 to 144 °C.
Compound `O=C(O)c1n[nH]c(C(=O)O)c1[N+](=O)[O-]` had a melting point of 325 to 327 °C.
`CCOC(=O)c1cc2c(cn1)[nH]c1ccc(C(C)=O)cc12` came in with a melting point of 290 to 305 °C.
In turn, `O=C1CCC(N2Cc3c(CNC(=O)Nc4ccc(Cl)cc4)cccc3C2=O)C(=O)N1` (centres undefined) displayed a melting point of more than 260 °C.
Consider `O=C(Nc1ccc(C2CC(F)(F)C2(F)F)cc1)Nc1nonc1-c1ccccc1` (centres undefined), for which the melting point amounted to 206 °C.
With `O=S(=O)(NCCCCCCCCn1ccnc1)c1ccc(Cl)cc1`, the melting point lay in the range of 54 to 56 °C.
As for `O=C(O)CCCCCCNS(=O)(=O)c1ccccc1`, the melting point lay within 75 to 77 °C.
`O=C(O)c1nn(-c2ccc(F)cc2F)c2c1[C@H]1CC[C@@H]2C1` registered a melting point of 110 to 112 °C.
Consider `Cc1c(C(=O)O)cn(-c2ccnc3ccccc23)c1C`, for which the melting point came out at 238 °C.
With `COc1ccc(C(=O)Nc2cccc3cnccc23)cc1OC` the figure was 193 to 194 °C; with `O=[N+]([O-])c1ccc(OCC(O)CO)c(O)c1` (centres undefined), 162 °C.
Turning to `O=C(CCCCCNC(=O)[C@H](Cc1c[nH]c2ccccc12)NC(=O)CCCc1ccccc1)NO`, the melting point lay within 106 to 108 °C.
`CC[C@H](Cn1ncnn1)n1cnc2cc3c(=O)n([C@H](C)Cn4ncnn4)nnc3cc2c1=O` registered a melting point of 80 to 82 °C.
Consider `CCCn1c(=O)c(-c2ccccc2)c2n(c1=O)CCCS2`, for which the melting point fell in the range of 132 to 133 °C.
Turning to `CC(=O)n1c(C(=O)O)cc2cc3c(cc21)OCO3`, the melting point was in the range of 164 to 166 °C.
The compound `COCc1nc2c(C(F)(F)F)cccc2c(O)c1C(=O)Nc1nccs1` showed a melting point of 260 °C.
As to `CC(C)(C)Cc1ccc2c(c1)C(=O)c1ccccc1C2=O`, the melting point amounted to 93.8 °C.
The same measure for `CCc1[nH]c(=S)[nH]c1-c1cc(C(C)(C)C)c(O)c(C(C)(C)C)c1`: 279 to 281 °C; for `CC(CO)c1ccc(-c2ccc(F)cc2F)c(F)c1` (centres undefined): 58 to 59 °C.
Take `O=C(O)c1cccc(N(CCc2ccccc2)c2nnc(-c3cccc(Oc4cccc(C(F)(F)F)c4)c3)s2)c1`: the melting point was 92 to 93 °C.
In turn, `CC(=O)OCCn1c2ccccc2c2ccccc21` displayed a melting point of 73 to 74.5 °C.
`NC(=O)Cc1cc(Oc2ccc3c(ccn3C(=O)Nc3ccc(-c4cccnc4)c(C(F)(F)F)c3)c2)ncn1` showed a melting point of 171 to 172 °C.
In turn, `Nc1n[nH]cc1C(=O)NC/C=C\COc1cc(CN2CCCCC2)ccn1` displayed a melting point of 172 to 174 °C.
With `CCC1(CC)c2ccccc2-c2ccccc21` the figure was 29 to 30 °C; with `Cc1nnc(-c2ccc3ncn(-c4ccc(S(C)=O)cc4)c3c2)o1` (centres undefined), 246 to 247 °C; with `N#CCc1ccccc1Sc1ccc(Cl)c(Cl)c1`, 48 to 49 °C.
With `CCCCNC(=O)Nc1ccc(OC(=O)NCCCC)cc1C(=O)NCC1CCN(C(c2ccccc2)c2ccccc2)CC1` the figure was 197 to 199 °C.
Regarding `O=C(c1ccc(OCCCCl)cc1)c1cccc2[nH]ccc12`, the melting point turned out to be 86 °C.
Take `C=CC1(CC(N)=O)CC(C)(C)CC(C)(C)C1`: the melting point was in the range of 44 to 46 °C.
In turn, `CC(=O)Nc1cnn2c1-c1ccccc1N(NC(C)=O)C2(C)C` gave a melting point of 229 to 230 °C.
Compound `CCOc1nn(Cc2ccc(OCc3nc(-c4ccco4)oc3C)cc2)cc1CCC(=O)O` had a melting point of 129 to 130 °C.
`CN(Cc1ccc2[nH]cc(CCN3C(=O)c4ccccc4C3=O)c2c1)S(=O)(=O)C(F)(F)F` displayed a melting point of 131 to 133 °C.
`Cc1noc(NS(=O)(=O)c2ccsc2C(=O)Nc2ccccc2)c1Br` displayed a melting point of 168 to 170 °C.
`CC(=O)NC[C@H]1CN(c2ccc(C(=O)c3cnc4ccccn34)c(F)c2)C(=O)O1` gave a melting point of 196 to 198 °C.
In turn, `Cc1cc(CC(O)CN2C(=O)CCC2=O)cc(C(C)(C)C)c1O` (centres undefined) registered a melting point of 218 °C.
With `COc1ccc(S(=O)(=O)Nc2nc(-c3ccccc3)nn2C)cc1OC` the figure was 279 to 280 °C.
Regarding `Cc1cc(C)cc(NC(=O)CO)c1`, the melting point was found to be 114 °C.
`COCCOc1cc(-n2c(=O)cc(C(F)(F)F)n(C)c2=O)c(F)cc1Cl` showed a melting point of 84 to 87 °C.
Consider `OCC1OC(n2c(Cl)nc3c(Br)c(Br)ccc32)C(O)C1O` (centres undefined), for which the melting point was in the range of 167 to 169 °C.
In turn, `COc1cc(C)c(N2C(=O)CS/C2=N/N=C\c2ccc(-c3ncn(-c4ccc(OC(F)(F)F)cc4)n3)cc2)c(C)c1` showed a melting point of 188 to 190 °C.
As for `CC(C)(C)c1cc(-c2nn(CCCCl)c3ncccc23)cc(C(C)(C)C)c1O`, the melting point was in the range of 107 to 109 °C.
